Like-named read-outs stand apart in the source and are kept apart here.
Assays:
ZIKV [1] = system: ZIKV; set-up: method as in ref 24 = [24]; settings: depending on the cultivated cells used; cited from earlier work
[2] = system: ZIKV surface E antigen expression; assay type: cell-based, Zika virus
[3] = system: WNV viral surface E antigen expression; assay type: cell-based, West Nile virus
ZIKV, WNV and TBEV = assay: organism not typed; assay type: cell-based
Vero cells = settings: African green monkey; human
ZIKV [4] = system: ZIKV
WNV [5] = system: WNV
TBEV [6] = system: TBEV
Chikungunya virus = settings: Vero cells or primary human fibroblasts; cited from earlier work
[7] = system: Crimean-Congo hemorrhagic fever virus; settings: cited from earlier work
HCV = system: HCV; set-up: method as in ref 11 = [11]; settings: Huh 7.5.1 cells, 15 µM, 24 h to 48 h; cited from earlier work
in vitro [8] = settings: African green monkey
in vitro [9] = settings: pig
in vitro [10] = assay: in vitro
ZIKV [11] = assay: microbe, parasite or virus in culture; settings: Zika virus, Vero, 48 h
WNV [12] = assay: microbe, parasite or virus in culture; settings: West Nile virus, Vero, 48 h
TBEV [13] = assay: microbe, parasite or virus in culture; settings: Tick-borne encephalitis virus, Vero, 48 h

CC(C)OC(=O)[C@H](C)N[P@](=O)(OC[C@H]1O[C@@H](n2ccc(=O)[nH]c2=O)[C@](C)(F)[C@@H]1O)Oc1ccccc1 [sofosbuvir]
activity against ZIKV infection (ZIKV [1]): differentially active

CCOC(=O)c1c(CSc2ccccc2)n(C)c2cc(Br)c(O)c(CN(C)C)c12.Cl.O [arbidol, ethyl-6-bromo-4-[(dimethylamino)methyl]-5-hydroxy-1-methyl-2-[(phenylthio)methyl]-indole-3-carboxylate hydrochloride monohydrate]
ZIKV surface E antigen expression (immunofluorescence staining) [2]: dose-dependent inhibition
WNV viral surface E antigen expression [3]: dose-dependent inhibition
antiviral effects in virus infected cells (ZIKV, WNV and TBEV): no antiviral effects
viral titer in growth curves (ZIKV, WNV and TBEV): rapid reduction of viral titer
EC50 (ZIKV, WNV and TBEV; Vero, read-out: EC50 values, range over ZIKV, WNV and TBEV): 10.6 to 19.2 µM
cytotoxicity in Vero cells lower than in Huh-7 cells (Vero cells): about 5 times
EC50 (ZIKV [4]): 10.6 ± 0.74 µM
ZIKV replication (ZIKV [4]): not inhibited
ZIKV viral replication (ZIKV [4]): inhibited completely
reduction in ZIKV titer compared to mock-treated cells (ZIKV [4]): about 10^4 fold
EC50 (WNV [5]): 19.2 ± 0.29 µM
antiviral effects against WNV (WNV [5]): little or no antiviral effects
SI (CC50/EC50) (TBEV [6]): 4.81
TBEV viral titer reduction compared with non-treated cells (TBEV [6]): 10^3 fold
inhibition of TBEV replication (TBEV [6]): incomplete
EC50 (Chikungunya virus): < 10 µg/mL
EC50 [7]: 2.8 µg/mL
inhibition of HCV replication (HCV): up to 10^3 fold
CC50 (in vitro [8]): 89.72 ± 0.19 µM
CC50 (in vitro [9]): 46.8 ± 1.65 µM
CC50 (in vitro [10]): 18.7 to 89.7 µM
CC50 (in vitro [10]; pig (PS), human (UKF-NB-4, HBCA)): 24.8 to 47 µM
EC50 (ZIKV [11]): 12.1 ± 0.77 µM
EC50 (WNV [12]): 18.8 ± 0.21 µM
EC50 (TBEV [13]): 18.67 ± 0.15 µM
